Source: ChEMBL document CHEMBL1147013, “Three anti-tumor saponins from Albizia julibrissin” (2006)

Legend:
Type in all cases: functional
HeLa [1] = assay: Antitumor activity against human HeLa cell line by MTT assay
HL-60 = assay: Antitumor activity against human HL60 cell line by SRB assay
PC-3 [2] = assay: Antitumor activity against human PC-3M-1E8 cell line by MTT assay
HeLa [3] = assay: Antitumor activity against human HeLa cell line by SRB assay
BGC-823 = assay: Antitumor activity against human BGC823 cell line by SRB assay
Bel-7402 [4] = assay: Antitumor activity against human Bel7402 cell line by MTT assay
MDA-MB-435 = assay: Antitumor activity against human MDA-MB-435 cell line by SRB assay
PC-3 [5] = assay: Antitumor activity against human PC-3M-1E8 cell line by SRB assay
Bel-7402 [6] = assay: Antitumor activity against human Bel7402 cell line by SRB assay

| Structure (SMILES) | Inhibition (HeLa [1]) | Inhibition (HL-60) | Inhibition (PC-3 [2]) | Inhibition (HeLa [3]) | Inhibition (BGC-823) | Inhibition (Bel-7402 [4]) | Inhibition (MDA-MB-435) | Inhibition (PC-3 [5]) | Inhibition (Bel-7402 [6]) |
| --- | --- | --- | --- | --- | --- | --- | --- | --- | --- |
| C=CC(C)(CC/C=C(/CO)C(=O)O[C@H]1CC2(C(=O)O[C@@H]3O[C@H](CO)[C@@H](O)[C@H](O)[C@@H]3O[C@H]3O[C@H](C)[C@@H](O[C@H]4O[C@H](CO)[C@@H](O)[C@@H]4O)[C@H](O[C@H]4O[C@@H](CO)[C@H](O)[C@@H](O)[C@@H]4O)[C@@H]3O)C(CC1(C)C)C1=CCC3C4(C)CC[C@H](O[C@@H]5O[C@H](CO[C@H]6O[C@@H](C)[C@@H](O)[C@@H](O)[C@@H]6O[C@H]6OC[C@H](O)[C@@H](O)[C@@H]6O)[C@@H](O)[C@H](O)[C@H]5OC5O[C@H](CO)[C@@H](O)[C@H](O)[C@H]5O)C(C)(C)C4CCC3(C)[C@]1(C)C[C@H]2O)O[C@H]1O[C@@H](C)[C@H](O)[C@@H](O)[C@@H]1O (stereo not given in full) [JULIBROSIDE J31] | 64.33% | 39.33% | 94.71% | 83.48% | 15.16% | 44.34% | 80.41% | 80.85% | 46.61% |
| COc1cccc2c1C(=O)c1c(O)c3c(c(O)c1C2=O)C[C@@](O)(C(=O)CO)C[C@@H]3O[C@H]1C[C@H](N)[C@H](O)[C@H](C)O1 [DOXORUBICIN] | 76.96% |  | 91.61% |  |  | 51.26% |  |  |  |
| C=C[C@@](C)(CC/C=C(\CO)C(=O)O[C@H]1C[C@]2(C(=O)O[C@@H]3O[C@H](CO)[C@@H](O)[C@H](O)[C@H]3O[C@@H]3O[C@@H](C)[C@H](O[C@@H]4O[C@@H](CO)[C@H](O)[C@H]4O)[C@@H](O[C@@H]4O[C@H](CO)[C@@H](O)[C@H](O)[C@H]4O)[C@H]3O)[C@H](O)C[C@]3(C)C(=CC[C@@H]4[C@@]5(C)CC[C@H](O[C@@H]6O[C@H](CO[C@@H]7O[C@H](C)[C@H](O)[C@H](O)[C@H]7O[C@@H]7OC[C@@H](O)[C@H](O)[C@H]7O)[C@@H](O)[C@H](O)[C@H]6NC(C)=O)C(C)(C)[C@@H]5CC[C@]43C)[C@@H]2CC1(C)C)O[C@@H]1O[C@H](C)[C@@H](O)[C@H](O)[C@H]1O [JULIBROSIDE J29] | 87.75% | 25.35% | 81.4% | 94.9% | 52.9% | 50.37% | 84.47% | 85.37% | 67.14% |
| C=CC(C)(CC/C=C(/CO)C(=O)O[C@H]1CC2(C(=O)O[C@@H]3O[C@H](CO)[C@@H](O)[C@H](O)[C@@H]3O[C@H]3O[C@H](C)[C@@H](O[C@H]4O[C@H](CO)[C@@H](O)[C@@H]4O)[C@H](O[C@H]4O[C@@H](CO)[C@H](O)[C@@H](O)[C@@H]4O)[C@@H]3O)C(CC1(C)C)C1=CCC3C4(C)CC[C@H](O[C@@H]5O[C@H](CO[C@H]6O[C@@H](C)[C@@H](O)[C@@H](O)[C@@H]6O[C@H]6OC[C@H](O)[C@@H](O)[C@@H]6O)[C@@H](O)[C@H](O)[C@H]5NC(C)=O)C(C)(C)C4CCC3(C)[C@]1(C)C[C@H]2O)O[C@H]1OC[C@H](O)[C@@H](O)[C@@H]1O (stereo not given in full) [JULIBROSIDE J30] | 92.19% | 25.59% | 75.96% | 91.65% | 46.66% | 61.87% | 75.68% | 84.98% | 57.49% |
